Data: US10875837B2, “Inhibitors of the fibroblast growth factor receptor” (BLUEPRINT MEDICINES CORPORATION, priority 2013, dated 2020)

How the values were obtained:
Hep3B xenograft tumors = assay: Hep3B liver cancer cell subcutaneous xenograft model in nude mice; assay type: in vivo
Procedure: The effects of Compound 27 on tumor growth inhibition in Hep3B liver cancer cell subcutaneous xenograft model with different dosages were studied.
Female nude mice (Mus musculus) age 6 to 8 weeks were used. Tumor cell culture and inoculation: Hep3B cells were cultured with EMEM medium (Invitrogen, USA) supplemented with 10% FBS (Gibco, Australia). The cells were harvested in 90% confluence, and the viability was no less than 90%. Mice were implanted subcutaneously (s.c.) with 200 μL of 10×10^6 Hep3B cells in 50% Matrigel in the right flank at the beginning of the study.
Animal grouping and dosing schedule: Ten days after cell implantation, when tumors reached an average volume of 284 mm^3, […] were selected based on tumor volume and randomly assigned to 5 treatment groups (n=9). The day of randomization was denoted as day 0 and the treatment was started from then on.
Tumor volume and body weight measurements: Tumor size was measured twice per week in two dimensions using a caliper, and the volume was expressed in mm^3 using the formula: V=0.5 a× b^2 where a and b were the long and short diameters of the tumor, respectively. Body weight was measured at least twice weekly.

wild type FGFR-4 = target: T1, wild type FGFR-4 (Homo sapiens, UniProt P22455); assay: FGFR-4 wild type assay at Km (Caliper electrophoretic mobility shift); assay type: biochemical; settings: wild type FGFR-4, 400 uM ATP, 25 C, 90 minutes; read-out: INH-FGFR4
T1 construct: purchased Carna Biosciences, Inc
T1 sequence (P22455 22-802): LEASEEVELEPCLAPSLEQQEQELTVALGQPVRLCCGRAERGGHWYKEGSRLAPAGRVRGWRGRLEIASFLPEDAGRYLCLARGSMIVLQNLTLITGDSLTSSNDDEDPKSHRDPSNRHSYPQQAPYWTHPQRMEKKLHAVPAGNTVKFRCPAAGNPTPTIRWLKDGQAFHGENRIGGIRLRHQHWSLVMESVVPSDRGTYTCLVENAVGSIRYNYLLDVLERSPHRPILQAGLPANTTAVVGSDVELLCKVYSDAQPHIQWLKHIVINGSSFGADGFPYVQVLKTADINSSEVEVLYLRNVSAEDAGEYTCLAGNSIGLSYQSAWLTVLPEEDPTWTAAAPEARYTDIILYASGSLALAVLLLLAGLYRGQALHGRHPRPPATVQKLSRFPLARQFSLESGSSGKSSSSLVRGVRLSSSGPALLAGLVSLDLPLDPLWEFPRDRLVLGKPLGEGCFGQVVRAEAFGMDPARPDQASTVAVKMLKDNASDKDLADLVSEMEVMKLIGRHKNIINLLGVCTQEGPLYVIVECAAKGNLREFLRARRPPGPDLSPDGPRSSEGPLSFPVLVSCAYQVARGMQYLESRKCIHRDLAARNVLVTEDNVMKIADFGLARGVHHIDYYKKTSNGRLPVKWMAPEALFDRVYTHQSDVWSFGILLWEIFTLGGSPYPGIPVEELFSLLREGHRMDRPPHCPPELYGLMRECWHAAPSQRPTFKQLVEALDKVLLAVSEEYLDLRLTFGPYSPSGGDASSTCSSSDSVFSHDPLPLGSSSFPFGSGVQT
Procedure: Biochemical Activity Assessment In order to assess the activity of chemical compounds against the relevant kinase of interest, the Caliper LifeSciences electrophoretic mobility shift technology platform is utilized. Fluorescently labeled substrate peptide is incubated in the presence dosed levels of compounds, a set concentration of kinase and of ATP, so that a reflective proportion of the peptide is phosphorylated. At the end of the reaction, the mix of phosphorylated (product) and non-phosphorylated (substrate) peptides are passed through the microfluidic system of the Caliper LabChip® EZ Reader II, under an applied potential difference. The presence of the phosphate group on the product peptide provides a difference in mass and charge between the product peptide and the substrate peptide, resulting in a separation of the substrate and product pools in the sample. As the pools pass the LEDS within the instrument, these pools are detected and resolved as separate peaks. The ratio between these peaks therefore reflects the activity of the chemical matter at that concentration in that well, under those conditions.
FGFR-4 wild type assay at Km: In each well of a 384-well plate, 0.5 ng/ul of wild type FGFR-4 (Carna Biosciences, Inc.) was incubated in a total of 12.5 ul of buffer (100 mM HEPES pH 7.5, 0.015% Brij 35, 10 mM MgCl2, 1 mM DTT) with 1 uM CSKtide (5-FAM-KKKKEEIYFFFG-NH2) and 400 uM ATP at 25 C for 90 minutes in the presence or absence of a dosed concentration series of compound (1% DMSO final concentration). The reaction was stopped by the addition of 70 ul of Stop buffer (100 mM HEPES pH 7.5, 0.015% Brij 35, 35 mM EDTA and 0.2% of Coating Reagent 3 (Caliper Lifesciences)). The plate was then read on a Caliper LabChip® EZ Reader II (protocol settings: −1.9 psi, upstream voltage −700, downstream voltage −3000, post sample sip 35 s).

[1] = system: pMAPK (Thr202/Tyr204) in MDA-MB453 or DMS 114 cells; assay: Detection of pMAPK (Thr202/Tyr204) using Alpha ELISA (pERK alphaLISA); assay type: cell-based; settings: 1 hr incubation with compound; cell line not given (MDA-MB453 or DMS 114)
Procedure: Detection of pMAPK (Thr202/Tyr204) Using Alpha ELISA
MDA-MB453 or DMS 114 cells were plated in 96-well cell culture plates at a density of 1×10^5 cells or 3×10^4 cells, respectively. Cells were allowed to attach, and growth media was replaced with serum free media. Compounds were added at the indicated concentrations. Following 1 hr incubation in the presence of compound, cells were collected. For the DMS 114 cells, 100 ng/mL FGF2 was added for 10 min prior to cell collection. Cell lysates were prepared and processed according to manufacturer instruction (AlphaScreen® SureFire™ Phospho-ERK 1/2 Kit (Perkin Elmer).

Compound | tumor response (Hep3B xenograft tumors; 100 mg/kg PO BID, Hep3B xenograft, nude mice) | tumor volume compared with vehicle group (Hep3B xenograft tumors; 30 and 100 mg/kg PO BID, Hep3B xenograft, nude mice) | body weight change (Hep3B xenograft tumors; Hep3B-bearing nude mice, only the 100 mg/kg PO BID group did not lose bodyweight) | tumor volume compared with vehicle group during the entire study (Hep3B xenograft tumors; all treated groups, 10 mg/kg to 100 mg/kg, Hep3B xenograft, nude mice) | tolerability (Hep3B xenograft tumors; current dosages and dosing schedule (10 to 100 mg/kg PO BID), nude mice) | dose dependence of tumor inhibition efficiency (Hep3B xenograft tumors; increasing dosage from 10 mg/kg to 100 mg/kg) | IC50 (wild type FGFR-4) [nM] | IC50 [1] [nM]
C=CC(=O)N[C@H]1COC[C@H]1Nc1ncc2cc(-c3c(Cl)c(OC)cc(OC)c3Cl)ccc2n1 [Compound 27, N-[(3R,4S)-4-{[6-(2,6-dichloro-3,5-dimethoxyphenyl)quinazolin-2-yl]amino}oxolan-3-yl]prop-2-enamide] | regressed and almost disappeared | Statistically significant reduction of tumor volumes | could alleviate body weight loss | significant reduction of tumor volume | well tolerated | enhanced the tumor inhibition efficiency | < 10 | < 10
C=CC(=O)N[C@H]1CCC[C@H]1Nc1ncc2cc(-c3c(Cl)c(OC)cc(OC)c3Cl)c(=O)n(CC)c2n1 [Compound 62, N-((1S,2R)-2-((6-(2,6-dichloro-3,5-dimethoxyphenyl)-8-ethyl-7-oxo-7,8-dihydropyrido[2,3-d]pyrimidin-2-yl)amino)cyclopentyl)acrylamide] | – | – | – | – | – | – | < 10 | 10 to 100
